Several values for one entry are separate records, joined by “and”; a condition that tells them apart may be missing. Equal values may be shown once. Where a name gives a salt, the structure may show the parent alone. Read-outs that look alike come from different tables or passages of the source.
How the values were obtained:
citrated sheep plasma = experiment: In vitro anti-coagulant activity (AC): clotting of recalcified citrated sheep plasma with sheep RBC; format: biochemical; conditions: for AC Wells: Table I, two-fold serial dilution, higher well number indicates higher activity, sodium heparin positive control; for Anti-coagulant Activity (Wells) AC: Table II, in vitro
Procedure: The sheep RBC's, kept in suspension throughout the clotting incubation time, become enmeshed in the fibrin matrix if a clot forms. Upon centrifugation of the plate, untrapped RBC's form buttons, the sizes of which correspond to the degree of clot inhibition; this providing a measure of anti-coagulant activity (AC). Sodium heparin is used as a positive control and activity is reported in wells appearing in Table 1.
(§1) **Activity in wells a serial dilution assay. Higher well number indicates
(§2) higher activity. The serial dilutions are two -fold.

complement system = conditions: literature report; cited from earlier work
[1] = tested on: hereditary angioneurotic edema; conditions: literature report, New England J. Med. 286, 808-812 (1972); cited from earlier work
[2] = tested on: human serum total hemolytic complement; conditions: in vitro and in vivo, Pathologie Biologie 25, 33-36 (1977); cited from earlier work
activated human C1 = activated human C1 (Homo sapiens, UniProt P09871); experiment: Code 026 (C1 inhibitor) test: ability of activated human C1 to destroy fluid phase human C2 in presence of C4; format: biochemical; conditions: for C1 026 Wells: Table I, two-fold serial dilution, higher well number indicates higher activity; for Complement Inhibiting Activity (Wells) Code 026: Table II, in vitro
Text: (§3) An active inhibitor protects C2 from C1 and C4; (ii) Test, Code 035 (C3-C9 inhibitor) - This test determines the ability of the late components of human complement (C3-C9) to lyse EAC 142 in the presence of appropriate dilutions of the test compound. An active inhibitor protects EAC 142 from lysis by human C3-C9; (iii) Test, Code 036 (C-Shunt inhibitor) - In this test human erythrocytes rendered fragile are lysed in autologous serum via the shunt pathway activated by cobra venom factor in the presence of appropriate dilutions of the test compound. Inhibition of the shunt pathway results in failure of lysis; (iv) Forssman Vasculitis Test - Here, the well known complement dependent lesion, Forssman vasculitis, is produced in guinea pigs by intradermal injection of rabbit anti-Forssman antiserum. The lesion is measured in terms of diameter, edema and hemorrhage and the extent to which a combined index of these is inhibited by prior intraperitoneal injection of the test compound at 200 mg/kg is then reported, unless otherwise stated; (v) Forssman Shock Test - Lethal shock is produced in guinea pigs by an i.v. injection of anti-Forssman antiserum and the harmonic mean death time of treated guinea pigs is compared with that of simultaneous controls; (vi) Complement Level Reduction Test -- In this test, the above dosed guinea pigs, or others, are bled for serum and the complement level is determined in undiluted serum by the capillary tube method of U.S. Pat. No. 3,876,376 and compared to undosed control guinea pigs; and (vii) Cap 50 Test -- Here, appropriate amounts of the test compound are added to a pool of guinea pig serum in vitro, after which the undiluted serum capillary tube assay referred to above is run. The concentration of compound inhibiting 50% is reported.
as §1, §2

shunt pathway = experiment: Code 036 (C-Shunt inhibitor) test: lysis of fragile human erythrocytes in autologous serum via shunt pathway activated by cobra venom factor; format: cell-based; conditions: Table I; two-fold serial dilution, higher well number indicates higher activity
Text: An active inhibitor protects C2 from C1 and C4; (ii) Test, Code 035 (C3-C9 inhibitor) - This test determines the ability of the late components of human complement (C3-C9) to lyse EAC 142 in the presence of appropriate dilutions of the test compound. An active inhibitor protects EAC 142 from lysis by human C3-C9; (iii) Test, Code 036 (C-Shunt inhibitor) - In this test human erythrocytes rendered fragile are lysed in autologous serum via the shunt pathway activated by cobra venom factor in the presence of appropriate dilutions of the test compound. Inhibition of the shunt pathway results in failure of lysis; (iv) Forssman Vasculitis Test - Here, the well known complement dependent lesion, Forssman vasculitis, is produced in guinea pigs by intradermal injection of rabbit anti-Forssman antiserum. […]

[3] = tested on: anti-complement and anti-coagulant activities; experiment: Intrinsic Therapeutic Index: separation of anti-complement (Code 026) and anti-coagulant (AC) activities; conditions: for Intrinsic Therapeutic Index: antilogarithm (base 2) of the difference in wells; for Logarithmic Difference Expressed As Wells: log base 2 difference, Code 026 minus AC
Text: The computation of an Intrinsic Therapeutic Index (ITI) was devised to correlate the results expressed in wells, obtained in the in vitro Code 026 (C1 inhibitor) test and the in vitro anti-coagulant (AC) test into a meaningful value which would aid in the net evaluation of the activity of the compounds of this invention.
The ITI is thus a measure of the separation of anti-complement and anti-coagulant activities; the higher the numerical value the more therapeutically useful the separation of activities.

whole complement = experiment: In vivo activity: whole complement level of serum of dosed guinea pigs, capillary tube assay; conditions: guinea pig; for inhibition at 200 mg/kg: Cavia porcellus, iv, 200 mg/kg i.v.; for % Inhibition, Intraperitoneal, 30 min / % Inhibition, Intraperitoneal, 60 min / % Inhibition, Intraperitoneal, 120 min: 200 mg/kg i.p., 200 mg/kg
Text: as §3
With reference to Table I, guinea pigs weighing about 300 g were dosed intravenously (i.v.) or intraperitoneally (i.p.) with 200 mg/kg of the test compound dissolved in saline and adjusted to pH 7-8. […] The serum was tested for whole complement using the capillary tube assay. Percent inhibition was calculated by comparison with simultaneous controls. The results appear in Table I together with results of tests, code 026, 035, 036, Cap 50, % inhibition and Forssman shock.

COCCOC(=O)c1cc(NS(=O)(=O)c2cc(S(=O)(=O)Nc3cc(C(=O)OCCOC)cc(C(=O)OCCOC)c3)cc(S(=O)(=O)Nc3cc(C(=O)OCCOC)cc(C(=O)OCCOC)c3)c2)cc(C(=O)OCCOC)c1 [5,5',5"-[s-Phenenyltris(sulfonylimino)]tri-isophthalic acid hexakis(2-methoxyethyl)ester]
AC Wells (citrated sheep plasma): < 0 Wells

Cc1ccc(C(=O)Nc2ccc(S(=O)(=O)O)c3cc(S(=O)(=O)O)cc(S(=O)(=O)O)c23)cc1NC(=O)c1cccc(NC(=O)Nc2cccc(C(=O)Nc3cc(C(=O)Nc4ccc(S(=O)(=O)O)c5cc(S(=O)(=O)O)cc(S(=O)(=O)O)c45)ccc3C)c2)c1 [Suramin]
anticomplementary effect / complement inhibition (complement system): competitive inhibitor of the complement system
success in treatment of hereditary angioneurotic edema [1]: used with success

pentosan-poly-sulfoester
anticomplementary activity, reduction in total hemolytic complement activity [2]: anticomplementary activity on human serum both in vitro and in vivo

O=C(O)c1cc(NS(=O)(=O)c2cc(S(=O)(=O)Nc3cc(C(=O)O)c(O)c(C(=O)O)c3)cc(S(=O)(=O)Nc3cc(C(=O)O)c(O)c(C(=O)O)c3)c2)cc(C(=O)O)c1O [5,5',5"-[s-Phenenyltris(sulfonylimino)]tri-2-hydroxy-isophthalic acid]
C1 026 Wells (activated human C1): +6 Wells
Complement Inhibiting Activity (Wells) Code 026 (activated human C1): +6 Wells
Shunt Inhibition 036 Wells (shunt pathway): +1 Wells
AC Wells (citrated sheep plasma): -1 Wells
Anti-coagulant Activity (Wells) AC (citrated sheep plasma): -1 Wells
Intrinsic Therapeutic Index [3]: 128
Logarithmic Difference Expressed As Wells [3]: +7 Wells

COC(=O)c1cc(NS(=O)(=O)c2cc(S(=O)(=O)Nc3cc(C(=O)OC)c(O)c(C(=O)OC)c3)cc(S(=O)(=O)Nc3cc(C(=O)OC)c(O)c(C(=O)OC)c3)c2)cc(C(=O)OC)c1O [5,5',5"-[s-Phenenyltris(sulfonylimino)]tri-2-hydroxy isophthalic acid hexamethyl ester]
AC Wells (citrated sheep plasma): -1 Wells

O=C(O)c1cc(NS(=O)(=O)c2cc(S(=O)(=O)Nc3cc(C(=O)O)cc(C(=O)O)c3)cc(S(=O)(=O)Nc3cc(C(=O)O)cc(C(=O)O)c3)c2)cc(C(=O)O)c1 [5,5',5"-[s-Phenenyltris(sulfonylimino)]tri-isophthalic acid] [listing 1 of 2 here]
inhibition at 200 mg/kg (whole complement; 2 min, 2 mins., read-out: % Inhibition, Intravenous, 2 min): -88%
inhibition at 200 mg/kg (whole complement; 0.5 h, 30 mins., read-out: % Inhibition, Intravenous, 30 min): -66%
inhibition at 200 mg/kg (whole complement; 2 h, 120 mins., read-out: % Inhibition, Intravenous, 120 min): -53%

heparin
anticomplementary effect / complement inhibition (complement system): anticomplementary effect

COC(=O)c1cc(NS(=O)(=O)c2cc(S(=O)(=O)Nc3ccc(O)c(C(=O)OC)c3)cc(S(=O)(=O)Nc3ccc(O)c(C(=O)OC)c3)c2)ccc1O [5,5',5"-[s-Phenenyltris(sulfonylimino)]trisalicyclic acid trimethyl ester]
AC Wells (citrated sheep plasma): ≤ +1 Wells

O=C(O)c1cc(NS(=O)(=O)c2cc(S(=O)(=O)Nc3cc(C(=O)O)cc(C(=O)O)c3)cc(S(=O)(=O)Nc3cc(C(=O)O)cc(C(=O)O)c3)c2)cc(C(=O)O)c1 [5,5',5"-[s-Phenenyltris(sulfonylimino)]tri-isophthalic acid ] [5,5',5"-[s-Phenenyltris(sulfonylimino)]tri-isophthalic acid hexasodium salt, trisodium derivative compound with ethyl alcohol (2:5)]
C1 026 Wells (activated human C1): +5 Wells
Complement Inhibiting Activity (Wells) Code 026 (activated human C1): +5 Wells
AC Wells (citrated sheep plasma): -1 Wells
Anti-coagulant Activity (Wells) AC (citrated sheep plasma): -1 Wells
% Inhibition, Intraperitoneal, 30 min (whole complement; 30 mins.): -62%
% Inhibition, Intraperitoneal, 60 min (whole complement): -53%
% Inhibition, Intraperitoneal, 120 min (whole complement; 120 mins.): -49%
Intrinsic Therapeutic Index [3]: 64
Logarithmic Difference Expressed As Wells [3]: +6 Wells

O=C(O)c1cc(NS(=O)(=O)c2cc(S(=O)(=O)Nc3cc(C(=O)O)cc(C(=O)O)c3)cc(S(=O)(=O)Nc3cc(C(=O)O)cc(C(=O)O)c3)c2)cc(C(=O)O)c1 [5,5',5"-[s-Phenenyltris(sulfonylimino)]tri-isophthalic acid] [listing 2 of 2 here]
% Inhibition, Intraperitoneal, 30 min (whole complement; 30 mins.): -74%
% Inhibition, Intraperitoneal, 60 min (whole complement): -74%
% Inhibition, Intraperitoneal, 120 min (whole complement; 120 mins.): -74%
Intrinsic Therapeutic Index [3]: 512 and 256

NC[C@H]1CC[C@H](C(=O)O)CC1 [tranexamic acid]
success in treatment of hereditary angioneurotic edema [1]: used with success

O=C(O)c1cc(NS(=O)(=O)c2cc(S(=O)(=O)Nc3ccc(O)c(C(=O)O)c3)cc(S(=O)(=O)Nc3ccc(O)c(C(=O)O)c3)c2)ccc1O [5,5',5"-[s-Phenenyltris(sulfonylimino)]trisalicylic acid]
AC Wells (citrated sheep plasma): -2 Wells

Nc1ccc2cc(S(=O)(=O)O)cc(O)c2c1N=Nc1ccc(NC(=O)Nc2ccc(N=Nc3c(N)ccc4cc(S(=O)(=O)O)cc(O)c34)c(S(=O)(=O)O)c2)cc1S(=O)(=O)O [chlorazol fast pink, 3,3'-ureylenebis-[6-(2-amino-8-hydroxy-6-sulfo-1-naphthylazo)]benzenesulfonic acid, tetrasodium salt]
anticomplementary effect / complement inhibition (complement system): anticomplementary effect

NCCCCCC(=O)O [epsilon-aminocaproic acid]
success in treatment of hereditary angioneurotic edema [1]: used with success

Reference: patent US4120896A, “S-Phenenyltris(sulfonylimino)tri-anionic substituted benzene dicarboxylic acids and substituted alkyl amino acids and their salts” (America Cyanamid Company, priority 1977, dated 1978)
